In ChEMBL document CHEMBL1150413, “A series of potent and selective, triazolylphenyl-based histone deacetylases inhibitors with activity against pancreatic cancer cells and Plasmodium falciparum” (J Med Chem, 2008):

Columns and labels:
Plasmodium falciparum [1] = experiment: Antimalarial activity against Plasmodium falciparum W2 by hypoxanthine uptake; assay type: functional, organism-based
Histone deacetylase 2 = Histone deacetylase 2 (Homo sapiens, UniProt Q92769)
Plasmodium falciparum [2] = experiment: microbe, parasite or virus in culture; details: TM91C235
Description: Antimalarial activity against Plasmodium falciparum TM91C235 by hypoxanthine uptake

BXPC-3 = experiment: Cytotoxicity against human BxPC3 cells after 72 hrs by MTT assay; assay type: functional, cell-based; details: BXPC-3, 72 h
Histone deacetylase 1 = Histone deacetylase 1 (Homo sapiens, UniProt Q13547)
Sequence of Histone deacetylase 1 (Q13547 whole entry): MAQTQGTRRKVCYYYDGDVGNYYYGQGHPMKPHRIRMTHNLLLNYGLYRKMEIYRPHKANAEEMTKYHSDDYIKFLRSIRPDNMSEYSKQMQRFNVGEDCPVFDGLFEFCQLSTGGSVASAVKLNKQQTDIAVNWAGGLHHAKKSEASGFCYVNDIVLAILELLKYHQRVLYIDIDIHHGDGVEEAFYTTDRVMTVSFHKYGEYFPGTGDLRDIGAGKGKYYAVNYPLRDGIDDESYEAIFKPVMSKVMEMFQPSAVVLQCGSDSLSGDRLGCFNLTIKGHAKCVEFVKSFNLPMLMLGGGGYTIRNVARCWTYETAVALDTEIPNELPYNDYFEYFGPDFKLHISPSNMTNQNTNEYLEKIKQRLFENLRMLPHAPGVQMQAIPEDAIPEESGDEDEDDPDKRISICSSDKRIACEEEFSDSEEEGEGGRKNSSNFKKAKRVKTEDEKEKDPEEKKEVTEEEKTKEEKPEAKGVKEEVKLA

Histone deacetylase 8 = molecular target: T1, Histone deacetylase 8 (Homo sapiens, UniProt Q9BY41)
T1 sequence (Q9BY41 whole entry): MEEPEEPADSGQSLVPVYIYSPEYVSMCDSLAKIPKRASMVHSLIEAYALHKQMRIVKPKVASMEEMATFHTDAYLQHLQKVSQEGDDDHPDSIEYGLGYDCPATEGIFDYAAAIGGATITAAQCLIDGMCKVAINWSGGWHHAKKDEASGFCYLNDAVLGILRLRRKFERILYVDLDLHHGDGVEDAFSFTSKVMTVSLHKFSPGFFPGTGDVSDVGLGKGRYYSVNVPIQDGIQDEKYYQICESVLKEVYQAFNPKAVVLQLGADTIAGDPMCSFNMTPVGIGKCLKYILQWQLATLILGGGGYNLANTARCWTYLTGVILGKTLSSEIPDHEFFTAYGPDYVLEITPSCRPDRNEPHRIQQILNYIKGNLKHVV

[3] = Cytotoxicity against human SU 86.86 cells after 72 hrs by MTT assay; assay type: functional, cell-based; details: SU.86.86, 72 h
[4] = Cytotoxicity against human Panc 04.03 cells after 72 hrs by MTT assay; assay type: functional, cell-based; details: Panc 04.03, 72 h
Plasmodium falciparum [5] = experiment: Antimalarial activity against Plasmodium falciparum TM90C2A by hypoxanthine uptake; assay type: functional, organism-based
MIA PaCa-2 = experiment: Cytotoxicity against human Mia Paca2 cells after 72 hrs by MTT assay; assay type: functional, cell-based; details: MIA PaCa-2, 72 h
Plasmodium falciparum [6] = experiment: Antimalarial activity against Plasmodium falciparum D6 by hypoxanthine uptake; assay type: functional, organism-based
[7] = molecular target: T2, Polyamine deacetylase HDAC10 (Homo sapiens, UniProt Q969S8)
T2 sequence (Q969S8 whole entry): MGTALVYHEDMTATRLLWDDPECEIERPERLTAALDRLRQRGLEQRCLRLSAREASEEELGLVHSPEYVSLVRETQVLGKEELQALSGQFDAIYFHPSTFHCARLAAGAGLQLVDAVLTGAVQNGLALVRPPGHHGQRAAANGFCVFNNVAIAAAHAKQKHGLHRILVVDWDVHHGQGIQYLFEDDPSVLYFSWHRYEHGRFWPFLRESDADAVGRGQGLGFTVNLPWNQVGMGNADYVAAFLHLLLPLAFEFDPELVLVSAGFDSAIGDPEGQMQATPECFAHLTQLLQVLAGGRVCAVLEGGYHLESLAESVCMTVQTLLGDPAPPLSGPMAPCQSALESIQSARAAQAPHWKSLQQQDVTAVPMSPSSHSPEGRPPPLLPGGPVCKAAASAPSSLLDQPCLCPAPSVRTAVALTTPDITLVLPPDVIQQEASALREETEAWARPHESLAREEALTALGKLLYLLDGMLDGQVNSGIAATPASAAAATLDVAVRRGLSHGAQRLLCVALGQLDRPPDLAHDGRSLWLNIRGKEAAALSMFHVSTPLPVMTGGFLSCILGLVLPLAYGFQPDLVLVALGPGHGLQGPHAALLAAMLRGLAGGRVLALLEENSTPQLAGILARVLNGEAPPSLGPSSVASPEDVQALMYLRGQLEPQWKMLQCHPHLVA

[8] = Selectivity for HDAC10 over HDAC1
[9] = molecular target: T3, Protein deacetylase HDAC6 (Homo sapiens, UniProt Q9UBN7)
T3 sequence (Q9UBN7 whole entry): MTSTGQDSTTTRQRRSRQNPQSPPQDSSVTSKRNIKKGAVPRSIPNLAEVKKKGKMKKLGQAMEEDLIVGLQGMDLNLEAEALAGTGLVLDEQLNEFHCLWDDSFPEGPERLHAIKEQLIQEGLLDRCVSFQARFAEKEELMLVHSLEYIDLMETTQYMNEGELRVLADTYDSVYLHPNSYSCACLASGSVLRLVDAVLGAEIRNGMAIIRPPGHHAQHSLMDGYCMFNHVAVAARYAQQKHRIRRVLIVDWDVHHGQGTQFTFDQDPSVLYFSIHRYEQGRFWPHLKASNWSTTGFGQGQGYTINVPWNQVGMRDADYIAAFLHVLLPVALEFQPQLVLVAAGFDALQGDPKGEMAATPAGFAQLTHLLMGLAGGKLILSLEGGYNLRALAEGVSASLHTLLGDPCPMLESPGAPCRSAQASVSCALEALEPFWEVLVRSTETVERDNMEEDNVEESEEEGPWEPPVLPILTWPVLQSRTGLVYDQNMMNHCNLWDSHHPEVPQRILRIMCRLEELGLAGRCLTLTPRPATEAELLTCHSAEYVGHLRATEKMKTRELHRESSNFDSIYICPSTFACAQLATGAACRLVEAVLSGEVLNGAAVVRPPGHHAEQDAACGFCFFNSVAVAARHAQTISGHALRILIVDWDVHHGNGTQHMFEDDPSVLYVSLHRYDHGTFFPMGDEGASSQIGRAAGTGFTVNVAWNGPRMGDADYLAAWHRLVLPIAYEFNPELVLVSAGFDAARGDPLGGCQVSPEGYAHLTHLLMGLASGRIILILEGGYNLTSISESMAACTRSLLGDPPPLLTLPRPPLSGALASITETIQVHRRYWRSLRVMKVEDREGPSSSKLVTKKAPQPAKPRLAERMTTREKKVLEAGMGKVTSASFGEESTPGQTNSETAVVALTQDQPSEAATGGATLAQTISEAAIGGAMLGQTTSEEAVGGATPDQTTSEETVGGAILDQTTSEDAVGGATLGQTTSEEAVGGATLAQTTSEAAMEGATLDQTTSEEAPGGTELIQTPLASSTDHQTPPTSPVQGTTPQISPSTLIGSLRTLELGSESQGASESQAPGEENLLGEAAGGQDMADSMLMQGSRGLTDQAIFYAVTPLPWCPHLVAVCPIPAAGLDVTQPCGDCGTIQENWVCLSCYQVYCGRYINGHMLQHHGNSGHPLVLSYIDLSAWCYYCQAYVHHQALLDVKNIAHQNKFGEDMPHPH

Histone deacetylase 3 = Histone deacetylase 3 (Homo sapiens, UniProt O15379)
Sequence of Histone deacetylase 3 (O15379 whole entry): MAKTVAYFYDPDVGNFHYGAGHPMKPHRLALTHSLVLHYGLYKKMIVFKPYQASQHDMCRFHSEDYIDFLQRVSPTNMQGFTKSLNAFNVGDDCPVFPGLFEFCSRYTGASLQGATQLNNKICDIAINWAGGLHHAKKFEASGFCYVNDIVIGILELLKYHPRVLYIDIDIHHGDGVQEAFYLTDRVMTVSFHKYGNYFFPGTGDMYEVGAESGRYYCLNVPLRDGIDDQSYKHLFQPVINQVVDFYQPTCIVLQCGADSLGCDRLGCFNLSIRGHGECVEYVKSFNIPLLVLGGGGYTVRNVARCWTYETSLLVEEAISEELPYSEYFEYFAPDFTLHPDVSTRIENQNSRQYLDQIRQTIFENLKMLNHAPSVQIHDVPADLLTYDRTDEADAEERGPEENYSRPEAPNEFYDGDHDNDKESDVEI

[10] = Cytotoxicity against human Hup T3 cells after 72 hrs by MTT assay; assay type: functional, cell-based; details: HuP-T3, 72 h

Sequence of Histone deacetylase 2 (Q92769 whole entry): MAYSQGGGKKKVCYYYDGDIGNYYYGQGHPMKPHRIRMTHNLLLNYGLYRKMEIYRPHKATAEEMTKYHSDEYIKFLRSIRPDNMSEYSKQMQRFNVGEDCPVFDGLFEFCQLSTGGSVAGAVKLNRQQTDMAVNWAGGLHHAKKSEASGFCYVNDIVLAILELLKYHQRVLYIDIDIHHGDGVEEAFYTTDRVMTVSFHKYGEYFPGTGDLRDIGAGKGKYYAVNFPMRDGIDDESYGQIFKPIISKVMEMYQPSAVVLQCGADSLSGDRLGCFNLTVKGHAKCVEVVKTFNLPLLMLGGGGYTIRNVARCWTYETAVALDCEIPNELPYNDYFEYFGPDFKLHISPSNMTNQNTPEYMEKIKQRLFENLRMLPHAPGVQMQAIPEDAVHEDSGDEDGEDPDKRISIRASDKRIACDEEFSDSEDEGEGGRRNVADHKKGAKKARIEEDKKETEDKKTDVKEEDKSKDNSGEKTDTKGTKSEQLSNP

SMILES	IC50 (Plasmodium falciparum [1]) [µM]	IC50 (Histone deacetylase 2) [µM]	IC50 (Plasmodium falciparum [2]) [µM]	IC50 (BXPC-3) [µM]	IC50 (Histone deacetylase 1) [µM]	IC50 (Histone deacetylase 8) [µM]	IC50 [3] [µM]	IC50 [4] [µM]	IC50 (Plasmodium falciparum [5]) [µM]	IC50 (MIA PaCa-2) [µM]	IC50 (Plasmodium falciparum [6]) [µM]	IC50 [7] [µM]	Ratio IC50 [8]	IC50 [9] [µM]	IC50 (Histone deacetylase 3) [µM]	IC50 [10] [µM]
O=C(CCCCCCC(=O)Nc1cccc(-c2cn(CC(O)c3cccc(Br)c3)nn2)c1)NO (centres undefined)	0.56	0.0644	0.26	11	0.0149	0.44	12	14	0.11	0.8	0.11	0.013	1.1	0.0019	0.0027	11
O=C(CCCCCCC(=O)Nc1ccc(-c2cnnn2Cc2ccc(F)cc2)cc1)NO	0.46	0.0574	0.29	11	0.0524	2.01	10	2	0.12	8	0.24	0.0647	0.8	0.0073	0.0164	4
O=C(CCCCCCC(=O)Nc1ccc(-c2cnnn2-c2ccccc2)cc1)NO	0.62	0.146	0.47	13	0.0705	0.518	11	8	0.17	8	0.35	0.0557	1.3	0.0035	0.012	10
O=C(CCCCCCC(=O)Nc1cccc(-c2cnnn2CC(O)c2cccc(Br)c2)c1)NO (centres undefined)	0.38	0.116	0.39	43	0.0234	0.406	23	25	0.12	11	0.18	0.0158	1.5	0.0028	0.0042	42
O=C(CCCCCCC(=O)Nc1ccc(-c2cn(Cc3ccccc3)nn2)cc1)NO	0.53	0.679	0.3	9	0.113	3.97	10	2	0.16	< 1	0.21	0.188	0.6	0.0048	–	5
O=C(CCCCCCC(=O)Nc1cccc(-c2cnnn2-c2ccccc2)c1)NO	0.73	0.167	0.5	10	0.0334	0.942	4	2	0.33	3	0.32	0.0245	1.4	0.0075	0.0077	8
O=C(CCCCCCC(=O)Nc1cccc(-c2cn(Cc3ccccc3)nn2)c1)NO	0.16	0.043	0.22	3	0.0145	1.99	2	2	0.19	< 0.5	0.14	0.0185	0.8	0.0031	0.0079	1
O=C(CCCCCCC(=O)Nc1ccc(-c2cn(Cc3ccc(F)cc3)nn2)cc1)NO	–	0.294	–	22	0.0978	0.797	11	3	–	< 0.5	–	0.112	0.9	0.0019	0.0137	4
O=C(CCCCCCC(=O)Nc1ccc(-c2cn(CC(O)c3cccc(Br)c3)nn2)cc1)NO (centres undefined)	0.39	0.143	0.11	18	0.0692	3.13	12	10	0.19	0.6	0.08	0.0865	0.8	0.0044	0.0253	12
O=C(CCCCCCC(=O)Nc1cccc(-c2cnnn2Cc2ccc(F)cc2)c1)NO	0.59	0.124	0.46	11	0.0259	0.529	8	9	0.21	2	0.3	0.0176	1.5	0.0038	0.0058	5
O=C(CCCCCCC(=O)Nc1ccccc1)NO [VORINOSTAT]	–	–	–	–	–	–	–	–	–	–	–	–	–	–	–	0.8
O=C(CCCCCCC(=O)Nc1ccc(-c2cnnn2CC(O)c2cccc(Br)c2)cc1)NO (centres undefined)	> 0.95	0.216	0.39	25	0.0699	0.737	42	44	0.23	37	0.23	0.0748	0.9	0.0042	0.0151	46
O[C@@H](c1cc(C(F)(F)F)nc2c(C(F)(F)F)cccc12)[C@H]1CCCCN1 [MEFLOQUINE]	–	–	–	–	–	–	–	–	–	–	0.011	–	–	–	–	–
O=C(CCCCCCC(=O)Nc1cccc(-c2cnnn2Cc2ccccc2)c1)NO	0.6	0.112	0.37	12	0.0186	0.433	7	4	0.15	1	0.21	0.0192	1	0.0033	0.0045	2
